These results are taken from the kinase profiling compilation of Christmann-Franck et al. (2016).

Targets include CDK5 CDK5R1 p35 (human) (UniProt Q00535+Q15078); CDK9 CCNK (human) (UniProt O75909+P50750); CDK1 CCNA2 (human) (UniProt P06493+P20248); DYRK1B (human) (UniProt Q9Y463); CDK6 CCND3 (human) (UniProt P30281+Q00534); CDK5 CDK5R1 p25 (human) (UniProt Q00535+Q15078); PRKCH (human) (UniProt P24723); LTK (human) (UniProt P29376); CDK4 CCND3 (human) (UniProt P30281+P11802); CDK2 CCNE1 (human) (UniProt P24941+P24864); MAP3K7 TAB1 (human) (UniProt O43318+Q15750); CDK7 CCNH MNAT1 (human) (UniProt P50613+P51948+P51946); CDK2 CCNA2 (human) (UniProt P24941+P20248); CDK6 CCND1 (human) (UniProt Q00534+P24385); CDK4 CCND1 (human) (UniProt P24385+P11802); STK33 (human) (UniProt Q9BYT3); CDK1 CCNB1 (human) (UniProt P06493+P14635); CDK3 CCNE1 (human) (UniProt Q00526+P24864); CDK9 CCNT1 (human) (UniProt P50750+O60563).

Common to all, as to assay: radiometric filter-binding kinase assay, Kinase HotSpot
What all share (conditions): compound 0.5 µM; ATP 10 µM

Experiment [1] deals with SGK1 (human), O00141 [S422D].
SGK1 (human), O00141 [S422D], sequence (O00141 whole entry S422D, looked up): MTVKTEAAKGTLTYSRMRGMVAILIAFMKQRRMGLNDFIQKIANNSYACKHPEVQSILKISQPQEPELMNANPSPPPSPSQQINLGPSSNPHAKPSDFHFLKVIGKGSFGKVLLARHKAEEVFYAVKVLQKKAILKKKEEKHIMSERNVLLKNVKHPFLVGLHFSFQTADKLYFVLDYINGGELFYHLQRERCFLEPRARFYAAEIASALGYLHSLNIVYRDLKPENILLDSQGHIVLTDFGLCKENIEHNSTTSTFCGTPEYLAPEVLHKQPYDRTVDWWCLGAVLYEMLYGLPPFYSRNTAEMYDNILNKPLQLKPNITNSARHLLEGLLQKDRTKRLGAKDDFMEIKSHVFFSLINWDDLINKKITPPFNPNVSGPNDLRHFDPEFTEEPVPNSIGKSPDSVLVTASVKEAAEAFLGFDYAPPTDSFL

CDK1 CCNB1 (human), sequence (P06493 whole entry, looked up): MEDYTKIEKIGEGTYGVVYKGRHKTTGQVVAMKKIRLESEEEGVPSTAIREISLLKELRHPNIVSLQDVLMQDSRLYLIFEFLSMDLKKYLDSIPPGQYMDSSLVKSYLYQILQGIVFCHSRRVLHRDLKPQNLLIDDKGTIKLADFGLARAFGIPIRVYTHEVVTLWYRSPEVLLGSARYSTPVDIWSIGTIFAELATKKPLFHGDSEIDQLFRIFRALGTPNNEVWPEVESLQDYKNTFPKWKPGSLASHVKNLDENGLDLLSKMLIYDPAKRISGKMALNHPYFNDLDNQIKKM
CDK1 CCNB1 (human), sequence (P14635 whole entry, looked up): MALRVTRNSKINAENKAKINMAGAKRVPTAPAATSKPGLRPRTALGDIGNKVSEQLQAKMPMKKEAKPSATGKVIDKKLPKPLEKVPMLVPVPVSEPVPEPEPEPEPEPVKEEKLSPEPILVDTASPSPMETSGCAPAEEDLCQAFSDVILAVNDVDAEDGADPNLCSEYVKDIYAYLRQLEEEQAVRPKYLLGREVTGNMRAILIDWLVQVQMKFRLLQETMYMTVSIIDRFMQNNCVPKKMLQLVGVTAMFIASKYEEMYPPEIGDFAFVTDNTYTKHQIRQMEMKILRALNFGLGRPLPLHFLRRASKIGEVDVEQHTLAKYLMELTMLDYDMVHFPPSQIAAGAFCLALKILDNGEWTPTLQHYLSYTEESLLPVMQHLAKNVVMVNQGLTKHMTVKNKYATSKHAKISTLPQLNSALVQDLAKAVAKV
CDK1 CCNA2 (human), sequence (P06493 whole entry, looked up): as the sequence (P06493 whole entry, looked up) above
CDK1 CCNA2 (human), sequence (P20248 whole entry, looked up): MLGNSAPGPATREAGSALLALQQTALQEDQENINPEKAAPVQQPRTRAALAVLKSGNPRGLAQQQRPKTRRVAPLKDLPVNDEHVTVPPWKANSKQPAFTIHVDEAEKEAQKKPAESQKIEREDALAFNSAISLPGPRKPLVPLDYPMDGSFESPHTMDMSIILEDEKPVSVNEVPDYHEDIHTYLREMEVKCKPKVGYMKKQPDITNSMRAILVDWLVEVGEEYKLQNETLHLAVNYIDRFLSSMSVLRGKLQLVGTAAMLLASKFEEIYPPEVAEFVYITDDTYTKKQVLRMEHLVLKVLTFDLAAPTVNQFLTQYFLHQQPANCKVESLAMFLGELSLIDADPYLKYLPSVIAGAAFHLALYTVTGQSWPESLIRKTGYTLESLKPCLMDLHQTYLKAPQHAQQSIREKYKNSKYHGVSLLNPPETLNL
CDK3 CCNE1 (human), sequence (P24864 whole entry, looked up): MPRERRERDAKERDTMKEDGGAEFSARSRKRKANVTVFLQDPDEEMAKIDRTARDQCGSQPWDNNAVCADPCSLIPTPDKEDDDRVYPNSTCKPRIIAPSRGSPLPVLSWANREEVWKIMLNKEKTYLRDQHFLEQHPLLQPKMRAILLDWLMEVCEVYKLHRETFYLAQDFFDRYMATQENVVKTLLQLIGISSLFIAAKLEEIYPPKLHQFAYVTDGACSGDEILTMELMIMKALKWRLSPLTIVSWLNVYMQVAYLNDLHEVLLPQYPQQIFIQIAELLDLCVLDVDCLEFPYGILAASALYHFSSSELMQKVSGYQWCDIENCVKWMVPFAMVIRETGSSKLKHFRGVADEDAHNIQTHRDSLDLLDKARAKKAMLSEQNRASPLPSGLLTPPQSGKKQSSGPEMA
CDK3 CCNE1 (human), sequence (Q00526 whole entry, looked up): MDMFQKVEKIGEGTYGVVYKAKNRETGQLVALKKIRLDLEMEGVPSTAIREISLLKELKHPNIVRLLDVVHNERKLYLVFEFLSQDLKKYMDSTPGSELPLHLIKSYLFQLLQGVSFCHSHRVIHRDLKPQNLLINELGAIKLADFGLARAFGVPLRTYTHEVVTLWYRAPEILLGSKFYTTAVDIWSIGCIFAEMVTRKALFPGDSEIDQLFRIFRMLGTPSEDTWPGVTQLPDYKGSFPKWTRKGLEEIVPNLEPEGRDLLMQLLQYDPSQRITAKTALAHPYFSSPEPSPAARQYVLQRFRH
CDK2 CCNE1 (human), sequence (P24864 whole entry, looked up, other chains not shown): as the sequence (P24864 whole entry, looked up) above
STK33 (human), sequence (Q9BYT3 whole entry, looked up): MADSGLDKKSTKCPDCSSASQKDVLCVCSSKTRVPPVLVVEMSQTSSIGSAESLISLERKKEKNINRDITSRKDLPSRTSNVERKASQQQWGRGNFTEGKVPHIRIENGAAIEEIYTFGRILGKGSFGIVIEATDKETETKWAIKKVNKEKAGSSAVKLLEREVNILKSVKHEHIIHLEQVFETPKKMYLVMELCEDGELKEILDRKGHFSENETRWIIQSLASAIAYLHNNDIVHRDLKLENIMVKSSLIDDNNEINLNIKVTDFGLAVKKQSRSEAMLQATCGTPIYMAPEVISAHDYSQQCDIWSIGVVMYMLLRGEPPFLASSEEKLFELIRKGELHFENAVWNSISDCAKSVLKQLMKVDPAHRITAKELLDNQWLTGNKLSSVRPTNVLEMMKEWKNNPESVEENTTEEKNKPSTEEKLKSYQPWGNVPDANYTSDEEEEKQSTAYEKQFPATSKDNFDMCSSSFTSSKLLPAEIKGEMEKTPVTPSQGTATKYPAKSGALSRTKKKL
PRKCH (human), sequence (P24723 whole entry, looked up): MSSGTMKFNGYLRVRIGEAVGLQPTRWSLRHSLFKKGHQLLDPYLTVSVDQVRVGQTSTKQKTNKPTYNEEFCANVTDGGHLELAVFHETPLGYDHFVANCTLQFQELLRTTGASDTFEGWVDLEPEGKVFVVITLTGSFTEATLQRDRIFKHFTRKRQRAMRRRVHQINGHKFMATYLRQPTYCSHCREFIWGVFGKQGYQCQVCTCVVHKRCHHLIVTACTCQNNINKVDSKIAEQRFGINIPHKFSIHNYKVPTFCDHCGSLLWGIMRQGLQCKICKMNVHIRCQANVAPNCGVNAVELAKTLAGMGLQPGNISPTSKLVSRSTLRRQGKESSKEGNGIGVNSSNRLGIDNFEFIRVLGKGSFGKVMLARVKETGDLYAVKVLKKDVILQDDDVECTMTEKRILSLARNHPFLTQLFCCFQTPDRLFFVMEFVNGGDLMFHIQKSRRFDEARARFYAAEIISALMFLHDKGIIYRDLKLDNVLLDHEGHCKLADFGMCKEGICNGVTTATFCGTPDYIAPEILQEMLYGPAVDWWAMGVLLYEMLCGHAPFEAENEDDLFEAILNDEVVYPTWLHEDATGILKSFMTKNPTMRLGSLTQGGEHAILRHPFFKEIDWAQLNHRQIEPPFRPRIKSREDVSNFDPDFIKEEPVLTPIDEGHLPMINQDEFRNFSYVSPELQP
CDK2 CCNA2 (human), sequence (P20248 whole entry, looked up, other chains not shown): as the sequence (P20248 whole entry, looked up) above
CDK6 CCND3 (human), sequence (P30281 whole entry, looked up): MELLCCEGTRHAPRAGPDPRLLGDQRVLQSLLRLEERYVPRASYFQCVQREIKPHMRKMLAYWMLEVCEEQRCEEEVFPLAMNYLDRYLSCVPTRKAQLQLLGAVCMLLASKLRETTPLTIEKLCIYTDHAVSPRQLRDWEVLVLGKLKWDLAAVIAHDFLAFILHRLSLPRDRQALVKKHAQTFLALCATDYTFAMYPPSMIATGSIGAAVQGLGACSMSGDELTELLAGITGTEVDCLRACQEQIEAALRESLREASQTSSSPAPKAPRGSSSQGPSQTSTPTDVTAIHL
CDK6 CCND3 (human), sequence (Q00534 whole entry, looked up): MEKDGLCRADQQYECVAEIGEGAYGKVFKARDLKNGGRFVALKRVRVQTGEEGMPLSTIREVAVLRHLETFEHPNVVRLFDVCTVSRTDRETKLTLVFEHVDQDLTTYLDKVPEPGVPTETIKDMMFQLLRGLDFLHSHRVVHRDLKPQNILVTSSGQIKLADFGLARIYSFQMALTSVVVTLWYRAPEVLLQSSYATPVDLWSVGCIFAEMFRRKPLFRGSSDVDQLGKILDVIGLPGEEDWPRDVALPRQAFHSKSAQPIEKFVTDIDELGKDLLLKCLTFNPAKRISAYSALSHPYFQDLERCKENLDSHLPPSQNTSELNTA
CDK4 CCND3 (human), sequence (P11802 whole entry, looked up): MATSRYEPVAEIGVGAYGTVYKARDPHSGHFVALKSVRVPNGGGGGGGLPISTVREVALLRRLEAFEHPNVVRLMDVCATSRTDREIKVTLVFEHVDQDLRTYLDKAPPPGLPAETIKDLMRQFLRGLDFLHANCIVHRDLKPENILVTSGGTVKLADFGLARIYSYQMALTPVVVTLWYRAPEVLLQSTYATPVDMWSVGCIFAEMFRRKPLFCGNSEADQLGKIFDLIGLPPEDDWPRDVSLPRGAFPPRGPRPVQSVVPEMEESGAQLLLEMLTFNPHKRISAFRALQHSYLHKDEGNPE
CDK4 CCND3 (human), sequence (P30281 whole entry, looked up): as the sequence (P30281 whole entry, looked up) above

In the case of `CC(C)(C)n1nc(Cc2cccc3ccccc23)c2c(N)ncnc21`, the residual activity (commonly the signal under treatment as a percentage of the control signal) at CDK5 CDK5R1 p35 (human) stood at 95.6%; on CDK9 CCNK (human), 81.4%; on CDK1 CCNA2 (human) it was 94.8%; at DYRK1B (human), 98.6%; on CDK6 CCND3 (human), 97.3%; on CDK5 CDK5R1 p25 (human) it was 109%. Moreover, the residual activity came to 92.1% at PRKCH (human); 98.2% at LTK (human); 95.8% on CDK4 CCND3 (human); 89.6% on CDK2 CCNE1 (human); 99% on MAP3K7 TAB1 (human); 100% at CDK7 CCNH MNAT1 (human). The residual activity was 99.4% at CDK2 CCNA2 (human); 98.6% on CDK6 CCND1 (human); 96.7% on CDK4 CCND1 (human); 99.7% on STK33 (human); 107% at CDK1 CCNB1 (human); 87.8% on CDK3 CCNE1 (human). At CDK9 CCNT1 (human), the residual activity came to 102%.
For `COc1cc(Nc2c(C#N)cnc3cc(OCCCN4CCN(C)CC4)c(OC)cc23)c(Cl)cc1Cl`, the residual activity in [1] amounted to 126%.
Still for that read-out and setting: for `Oc1cccc(-c2nc(N3CCOCC3)c3oc4ncccc4c3n2)c1` the value was 100%; for `O=C1Nc2ccccc2/C1=C1/Nc2ccccc2/C1=N\OCCC(O)CO` (configuration not stated), 51%.
On the same count and under the same terms, for `NC(=O)c1ccc(N(C(N)=O)c2c(F)cccc2F)nc1-c1ccc(F)cc1F` the value was 121%.
Same read-out and setting: the same measure for `CC(C)(C)c1nc2c3ccc(F)cc3c3c(=O)[nH]ccc3c2[nH]1`: 50.9%; for `O=C1NC(=O)c2c1c1c3ccccc3[nH]c1n1cncc21`: 69%; for `Cn1c2ccccc2c2c3c(c4c5ccccc5n(CCC#N)c4c21)CNC3=O`: 79.1%.
Turning to `CC(C)[C@H](CO)Nc1nc(Nc2cccc(Cl)c2)c2ncn(C(C)C)c2n1`, in experiment [1], the residual activity was found to be 99.1%.
On the same count and under the same terms, the same measure for `Nc1nc(Nc2ccc(S(N)(=O)=O)cc2)nn1C(=O)c1c(F)cccc1F`: 93%.
Same read-out and setting: the same measure for `CN(C)CCCn1cc(C2=C(c3c[nH]c4ccccc34)C(=O)NC2=O)c2ccccc21`: 48.6%; for `CCOC(=O)c1c(C)[nH]c(/C=C2\C(=O)Nc3ccccc32)c1C`: 92%; for `CCCC(=O)Oc1ccc2[nH]c(C(=O)c3cc4ccccc4[nH]3)cc2c1`: 97%.
The same measure, in the same setting: for `O=C1Nc2ccc(Cl)cc2/C1=C/c1cc(Cl)c(O)c(Cl)c1` the value was 91.3%; for `Cn1sc(=O)n(Cc2ccccc2)c1=O`, 94%; for `Oc1ccc(-c2nc(-c3ccc(F)cc3)c(-c3ccncc3)[nH]2)cc1`, 101%.
As to `Ic1cccc(CSc2nnc(-c3ccncc3)o2)c1`, in experiment [1], the residual activity worked out at 99%.
On the same count and under the same terms, the same measure for `COc1cc2ncnc(Nc3cccc(Cl)c3)c2cc1OC`: 91.3%; for `COc1cc2ncnc(Nc3ccc(F)c(Cl)c3)c2cc1OCCCN1CCOCC1`: 131%.
